Measurements as given in patent publication US20060234956A1, “Dicarboxylic acid ester derivatives of ginsenoside, pharmaceutical preparations containing the same, and preparation thereof” (Amersen Bioscience International, Inc., priority 2005, published 2006).
Like-named read-outs stand apart in the source and are kept apart here.

Key:
Type in all cases: cell-based
[1] = system: OVCAR-3 (Adenocarcinoma, ovary, human); assay: Anti-cancer activity assay, alamarBlue cell growth, OVCAR-3
From the text: (§1) Four human tumor cell lines, OVCAR-3 (Adenocarcinoma, ovary, human), A549 (Carcinoma, lung, human), HT-29 (Adenocarcinoma, colon, moderately well-differentiated grade II, human) and MCF-7 (Breast adenocarcinoma, pleural effusion, human) were chosen in the experiments., which were obtained from American Type Culture Collection (ATCC) under codes of ATCC HTB-161, ATCC CCL-185, ATC HTB-38 and ATCC HTB-22, respectively. The culture medium used for OVCAR-3 was RPMI 1640 medium with 20% fetal bovine serum, which was supplemented with 0.01 mg bovine insulin per ml and 1% Antibiotice-Antimycotic. The culture medium used for A549 was F-12K nutrient mixture (Kaighn's Modification), 90%; and fetal bovine serum 10%. The culture medium used for HT-29 was McCoy's 5A medium, 90%; and fetal bovine serum, 10%. The culture medium used for MCF-7 was Minimum Essential Medium, 90%; and fetal bovine serum, 10%.
CK was dissolved in a mixed solvent of ethanol and Cremophor® RH40 (ethanol:Cremophor® RH40=1:1), and then diluted with sterile distilled water to obtain test solutions having CK concentrations of 10000, 1000, 100, 10, 1 μg/ml in 5% ethanol and 5% Cremophor® RH40.
(§2) Aliquots of 100 μl of cell suspension (about 1.0˜3.0×10^3/well) were placed in 96-well microtiter plates in an atmosphere of 5% CO2 at 37° C. After 24 hours, 100 μl of growth medium and 2 μl of test solution or vehicle (5% ethanol and 5% Cremophor® RH40) were added per respectively per well in duplicate for an additional 72-hour incubation. Thus, the final concentration of vehicle was 0.05%. The test compound, CK, was evaluated at concentrations of 100, 10, 1, 0.1, 0.01 μg/ml. At the end of the incubation, 20 μl of alamarBlue 90% reagent was added to each well for another 6-hour incubation before detection of cell viability by fluorescent intensity. Fluorescent intensity was measured using a SPECTRAfluor Plus plate reader with excitation at 530 nm and emission at 590 nm.
The tumor cell lines used were the same as in Experiment 1.
CK succinate and CK glutarate derivatives were directly dissolved in the phosphate buffered saline (PBS) having a pH of 7.4, and then diluted with sterile distilled water to obtain test solutions having concentrations of the CK derivative of 2000, 200, 20, 2, 0.2 μg/ml in 40% PBS
as §2, with “(about 5.0×10^3/well)” for “(about 1.0˜3.0×10^3/well)”, “hours, 90” for “hours, 100”, “and 10” for “and 2”, “vehicle (40% PBS, pH 7.4)” for “vehicle (5% ethanol and 5% Cremophor® RH40)”, “compound, CK derivative,” for “compound, CK,”
The measured results were calculated according to the following formulas: • PG (Percent Growth): PG(%)=100%×(Mean Ftest-Mean Ftime0)/(Mean Fctrl-Mean Ftime0) • If (Mean Ftest-Mean Ftime0)<0, then PG(%)=100%×(Mean Ftest-Mean Ftime0)/(Mean Ftime0-Mean Fblank) wherein • Mean Ftime0=The average of two measured fluorescent intensities of reduced alamarBlue at the time just before exposure of cells to the test compound; • Mean Ftest=The average of two measured fluorescent intensities of alamarBlue after 72-hour exposure of cells to the test compound; • Mean Fctrl=The average of two measured fluorescent intensities of alamarBlue after 72-hour incubation without the test compound; • Mean Fblank=The average of two measured fluorescent intensities of alamarBlue in medium without cells after 72-hour incubation. […]

[2] = system: MCF-7 (Breast adenocarcinoma, pleural effusion, human); assay: Anti-cancer activity assay, alamarBlue cell growth, MCF-7; conditions: 72-hour incubation, CK in 5% ethanol/5% Cremophor RH40, derivatives in PBS pH 7.4, read-out: IC50 (μM) of CK, CK succinate and CK glutarate derivatives, MCF-7
From the text: as §1, with “The culture medium used for A549 was F-12K nutrient mixture (Kaighn's Modification), 90%; and fetal bovine serum 10%. The culture medium used for HT-29 was McCoy's 5A medium, 90%; and fetal bovine serum, 10%. The culture medium used for MCF-7 was Minimum Essential Medium, 90%; and fetal bovine serum, 10%.” left out
(§3) Aliquots of 100 μl of cell suspension (about 1.0˜3.0×10^3/well) were placed in 96-well microtiter plates in an atmosphere of 5% CO2 at 37° C. […] The test compound, CK, was evaluated at concentrations of 100, 10, 1, 0.1, 0.01 μg/ml. […] Fluorescent intensity was measured using a SPECTRAfluor Plus plate reader with excitation at 530 nm and emission at 590 nm. […]
as §3, with “5.0×10^3/well)” for “1.0˜3.0×10^3/well)”, “CK derivative,” for “CK,”

[3] = system: HT-29 (Adenocarcinoma, colon, moderately well-differentiated grade II, human); assay: Anti-cancer activity assay, alamarBlue cell growth, HT-29; conditions: 72-hour incubation, CK in 5% ethanol/5% Cremophor RH40, derivatives in PBS pH 7.4, read-out: IC50 (μM) of CK, CK succinate and CK glutarate derivatives, HT-29
From the text: as §1, with “The culture medium used for A549 was F-12K nutrient mixture (Kaighn's Modification), 90%; and fetal bovine serum 10%. The culture medium used for HT-29 was McCoy's 5A medium, 90%; and fetal bovine serum, 10%. The culture medium used for MCF-7 was Minimum Essential Medium, 90%; and fetal bovine serum, 10%.” left out
as §3
as §3, with “5.0×10^3/well)” for “1.0˜3.0×10^3/well)”, “CK derivative,” for “CK,”

[4] = system: A549 (Carcinoma, lung, human); assay: Anti-cancer activity assay, alamarBlue cell growth, A549; conditions: 72-hour incubation, CK in 5% ethanol/5% Cremophor RH40, derivatives in PBS pH 7.4, read-out: IC50 (μM) of CK, CK succinate and CK glutarate derivatives, A549
From the text: as §1, with “The culture medium used for A549 was F-12K nutrient mixture (Kaighn's Modification), 90%; and fetal bovine serum 10%. The culture medium used for HT-29 was McCoy's 5A medium, 90%; and fetal bovine serum, 10%. The culture medium used for MCF-7 was Minimum Essential Medium, 90%; and fetal bovine serum, 10%.” left out
as §3
as §3, with “5.0×10^3/well)” for “1.0˜3.0×10^3/well)”, “CK derivative,” for “CK,”

[5] = OVCAR-3 tumor cell, Table 4, read-out: IC50 (μM) of ginsenosides and it's succinate derivatives on OVCAR-3 tumor cell
[6] = OVCAR-3, 72-hour incubation, alamarBlue, CK in 5% ethanol/5% Cremophor RH40, derivatives in PBS pH 7.4, read-out: IC50 (μM) of CK, CK succinate and CK glutarate derivatives, OVCAR-3

IC50 [1, 5]	IC50 [1, 6]	Structure (SMILES)	further results
42.8 µM		CC(C)=CCCC(C)(O)C1CCC2(C)C1C(OC(=O)CCC(=O)O)CC1C3(C)CCC(O)C(C)(C)C3CCC12C (stereo not shown) [GS41, PPD-12-monosuccinate]	
31.2 µM		CC(C)=CCCC(C)(O)C1CCC2(C)C1C(OC(=O)CCC(=O)O)CC1C3(C)CCC(O)C(C)(C)C3C(O)CC12C (stereo not shown) [GS51, PPT-12-monosuccinate]	
26.6 µM		CC(C)=CCCC(C)(O)C1CCC2(C)C1C(OC(=O)CCC(=O)O)CC1C3(C)CCC(OC(=O)CCC(=O)O)C(C)(C)C3C(O)CC12C (stereo not shown) [GS52, PPT-3,12-disuccinate]	
	22.1 µM	CC(C)=CCCC(C)(OC1OC(COC(=O)CCC(=O)O)C(O)C(O)C1O)C1CCC2(C)C1C(O)CC1C3(C)CCC(O)C(C)(C)C3CCC12C (stereo not shown) [GS-6, CK-6′-monosuccinate]	
	89.9 µM	CC(C)=CCCC(C)(OC1OC(COC(=O)CCC(=O)O)C(O)C(OC(=O)CCC(=O)O)C1O)C1CCC2(C)C1C(O)CC1C3(C)CCC(O)C(C)(C)C3CCC12C (stereo not shown) [GS-9, CK-3′,6,-disuccinate]	
	> 100 µM	CC(C)=CCCC(C)(OC1OC(COC(=O)CCC(=O)O)C(OC(=O)CCC(=O)O)C(OC(=O)CCC(=O)O)C1O)C1CCC2(C)C1C(O)CC1C3(C)CCC(O)C(C)(C)C3CCC12C (stereo not shown) [GS-11, CK-3′,4′,6′-trisuccinate]	
	79.8 µM	CC(C)=CCCC(C)(OC1OC(COC(=O)CCCC(=O)O)C(O)C(OC(=O)CCCC(=O)O)C1O)C1CCC2(C)C1C(O)CC1C3(C)CCC(O)C(C)(C)C3CCC12C (stereo not shown) [GS-14, CK-3′,6′-diglutarate]	

Further lines, the compound ahead of its results:

Structure (SMILES)	IC50 [1, 5]	IC50 [1, 6]	further results
CC(C)=CCCC(C)(O)[C@H]1CC[C@]2(C)[C@@H]1[C@H](O)C[C@@H]1[C@@]3(C)CC[C@H](O)C(C)(C)[C@@H]3CC[C@]12C (stereo in doubt) [GS40, protopanaxadiol, reference compound]	28.2 µM		
CC(C)=CCC[C@](C)(O[C@@H]1O[C@H](CO)[C@@H](O)[C@H](O)[C@H]1O)[C@H]1CC[C@]2(C)[C@@H]1[C@H](O)C[C@@H]1[C@@]3(C)CC[C@H](O)C(C)(C)[C@@H]3[C@@H](O)C[C@]12C [GS30, F1, reference compound]	50.1 µM		
CC(C)=CCCC(C)(OC1OC(CO)C(O)C(OC(=O)CCC(=O)O)C1O)C1CCC2(C)C1C(O)CC1C3(C)CCC(O)C(C)(C)C3C(O)CC12C (stereo not shown) [GS32, F1-3′-monosuccinate]	14.9 µM		
CC(C)=CCCC(C)(O)C1CCC2(C)C1C(OC(=O)CCC(=O)O)CC1C3(C)CCC(OC(=O)CCC(=O)O)C(C)(C)C3CCC12C (stereo not shown) [GS42, PPD-3,12-disuccinate]	30.3 µM		
CC(C)=CCC[C@](C)(O)[C@H]1CC[C@]2(C)[C@@H]1[C@H](O)C[C@@H]1[C@@]3(C)CC[C@H](O)C(C)(C)[C@@H]3[C@@H](O)C[C@]12C [GS50, protopanaxatriol, reference compound]	31.5 µM		
CC(C)=CCCC(C)(O)C1CCC2(C)C1C(OC(=O)CCC(=O)O)CC1C3(C)CCC(OC(=O)CCC(=O)O)C(C)(C)C3C(OC(=O)CCC(=O)O)CC12C (stereo not shown) [GS53, PPT-3,6,12-trisuccinate]	47.6 µM		
CC(C)=CCC[C@](C)(O[C@@H]1O[C@H](CO)[C@@H](O)[C@H](OC(=O)CCC(=O)O)[C@H]1O)[C@H]1CC[C@]2(C)[C@@H]1[C@H](O)C[C@@H]1[C@@]3(C)CC[C@H](O)C(C)(C)[C@@H]3CC[C@]12C [GS-8, CK-3′-monosuccinate]		19.3 µM	IC50 [2]: 53.9 µM; IC50 [3]: 71.9 µM; IC50 [4]: 31.8 µM
CC(C)=CCC[C@](C)(O[C@@H]1O[C@H](CO)[C@@H](O)[C@H](O)[C@H]1O)[C@H]1CC[C@]2(C)[C@@H]1[C@H](O)C[C@@H]1[C@@]3(C)CC[C@H](O)C(C)(C)[C@@H]3CC[C@]12C [GS-12, 20-O-β-D-glucopyranosyl-protopanaxadiol, reference compound]		2.7 µM	IC50 [2]: 11.2 µM; IC50 [3]: 9.3 µM; IC50 [4]: 17.7 µM
CC(C)=CCCC(C)(OC1OC(CO)C(O)C(OC(=O)CCCC(=O)O)C1O)C1CCC2(C)C1C(O)CC1C3(C)CCC(O)C(C)(C)C3CCC12C (stereo not shown) [GS-13, CK-3′-monoglutarate]		69.1 µM	
